# Read-outs that look alike come from different tables or passages of the source. Bridge positions count the residues as written; N and C are the ends. Square brackets hold non-standard residues; d marks the D form. Peptide text beside a SMILES is read from it. Trp(1-Me) = Cn1cc(C[C@H](N)C(=O)O)c2ccccc21; NMeI = CC[C@H](C)[C@H](NC)C(=O)O; Orn = NCCC[C@H](N)C(=O)O; Sar = CNCC(=O)O
# Molecular target: T1, C3b (Homo sapiens, UniProt P01024)
# T1 construct: Biotinylated C3b was captured site-specifically on a streptavidin chip
# T1 sequence (P01024 23-667 limits assumed): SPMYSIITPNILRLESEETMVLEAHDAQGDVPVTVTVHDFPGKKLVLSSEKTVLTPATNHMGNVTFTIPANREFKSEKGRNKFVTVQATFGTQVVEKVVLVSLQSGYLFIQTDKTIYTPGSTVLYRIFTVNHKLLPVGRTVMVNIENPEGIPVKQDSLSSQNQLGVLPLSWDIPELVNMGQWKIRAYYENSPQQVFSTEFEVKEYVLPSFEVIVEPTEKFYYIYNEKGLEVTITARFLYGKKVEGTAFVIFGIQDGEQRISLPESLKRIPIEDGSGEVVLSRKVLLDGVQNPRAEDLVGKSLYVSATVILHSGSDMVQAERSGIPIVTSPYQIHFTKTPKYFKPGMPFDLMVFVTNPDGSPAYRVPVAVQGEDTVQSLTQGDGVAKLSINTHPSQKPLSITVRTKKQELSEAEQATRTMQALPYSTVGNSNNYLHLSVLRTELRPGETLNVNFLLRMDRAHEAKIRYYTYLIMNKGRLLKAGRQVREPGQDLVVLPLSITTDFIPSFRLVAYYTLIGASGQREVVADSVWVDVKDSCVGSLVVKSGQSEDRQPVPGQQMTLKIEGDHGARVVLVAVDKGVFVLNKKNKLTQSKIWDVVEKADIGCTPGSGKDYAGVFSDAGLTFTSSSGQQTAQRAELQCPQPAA
# T1 sequence (P01024 749-1663 partner limits assumed): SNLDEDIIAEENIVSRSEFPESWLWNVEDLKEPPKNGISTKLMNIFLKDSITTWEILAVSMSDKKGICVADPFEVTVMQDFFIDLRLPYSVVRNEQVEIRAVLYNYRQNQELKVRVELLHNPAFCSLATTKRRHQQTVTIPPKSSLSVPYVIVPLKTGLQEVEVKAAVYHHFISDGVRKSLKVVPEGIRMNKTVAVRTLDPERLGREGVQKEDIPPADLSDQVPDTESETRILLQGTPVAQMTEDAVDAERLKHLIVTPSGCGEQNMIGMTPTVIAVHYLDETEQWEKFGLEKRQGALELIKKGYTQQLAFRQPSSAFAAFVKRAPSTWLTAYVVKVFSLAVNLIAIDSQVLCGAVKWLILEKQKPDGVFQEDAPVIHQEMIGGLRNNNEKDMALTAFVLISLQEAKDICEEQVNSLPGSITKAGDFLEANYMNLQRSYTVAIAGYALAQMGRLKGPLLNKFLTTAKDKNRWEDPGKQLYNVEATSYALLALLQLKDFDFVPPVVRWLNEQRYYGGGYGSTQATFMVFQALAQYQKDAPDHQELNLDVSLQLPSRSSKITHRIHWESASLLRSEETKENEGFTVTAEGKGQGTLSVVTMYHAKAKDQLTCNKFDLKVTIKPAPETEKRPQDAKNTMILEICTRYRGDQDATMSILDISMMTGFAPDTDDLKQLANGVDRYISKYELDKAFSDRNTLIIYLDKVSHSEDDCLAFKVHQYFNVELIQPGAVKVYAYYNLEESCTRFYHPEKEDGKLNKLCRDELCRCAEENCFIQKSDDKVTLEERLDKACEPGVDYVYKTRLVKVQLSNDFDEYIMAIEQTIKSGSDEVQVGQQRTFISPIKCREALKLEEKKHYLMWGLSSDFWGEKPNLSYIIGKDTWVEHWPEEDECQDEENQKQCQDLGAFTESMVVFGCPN
# Assay: SPR kinetic analysis of binding to immobilized C3b (Biacore, single cycle kinetics)
# Settings: for Kd: read-out: KD: binding constant from SPR; for koff: read-out: kd: dissociation rate
# Description: SPR analysis. The interaction of the compstatin analogs with C3b was characterized using a Biacore 3000 instrument (GE Healthcare, Corp., Piscataway, N.J.). The running buffer was PBS, pH 7.4 (10 mM sodium phosphate, 150 mM NaCl) with 0.005% Tween-20. Biotinylated C3b was captured site-specifically on a streptavidin chip at about 3000 and 5000 RU density; two untreated flow cells were used as reference surface. For kinetic analysis, sets of five increasing concentrations of a particular compound were injected over the chip surface one after the other in a single cycle. […] Processed biosensor data were globally fitted to a 1:1 Langmuir binding model (kindly provided by GE Helthcare), and the equilibrium dissociation constant (KD) was calculated from the equation KD=kd/ka. Each assay was performed at least twice.
Structure (SMILES),"ka: association rate (Table 2, Cp40-based analogs)","Kd (Table 2, Cp40-based analogs) [nM]","koff (Table 2, Cp40-based analogs) [s⁻¹]","ka: association rate (Table 1, N-terminal analogs)","Kd (Table 1, N-terminal analogs) [nM]","koff (Table 1, N-terminal analogs) [s⁻¹]"
CC[C@H](C)[C@H](NC(=O)[C@H](N)Cc1ccc(O)cc1)C(=O)N[C@H]1CSSC[C@@H](C(=O)N(C)[C@H](C(N)=O)[C@@H](C)CC)NC(=O)[C@H](CCCNC(=N)N)NC(=O)[C@H](Cc2c[nH]cn2)NC(=O)[C@H](C)NC(=O)CN(C)C(=O)[C@H](Cc2c[nH]c3ccccc23)NC(=O)[C@H](CC(N)=O)NC(=O)[C@H](CCC(N)=O)NC(=O)[C@H](Cc2cn(C)c3ccccc23)NC(=O)[C@H](C(C)C)NC1=O [Cp40 (6Asn)] (H-[dY]ICV[Trp(1-Me)]QNW[Sar]AHRC[NMeI]-NH2; disulfide 3-13),0.9 ± 0.1 10^6/Ms,3 ± 0.4,0.0028 ± 0.0001,,,
CC[C@H](C)[C@H](NC(=O)[C@H](N)Cc1ccc(O)cc1)C(=O)N[C@H]1CSSC[C@@H](C(=O)N(C)[C@H](C(N)=O)[C@@H](C)CC)NC(=O)[C@H](CCCN)NC(=O)[C@H](Cc2c[nH]cn2)NC(=O)[C@H](C)NC(=O)CN(C)C(=O)[C@H](Cc2c[nH]c3ccccc23)NC(=O)[C@H](CC(N)=O)NC(=O)[C@H](CCC(N)=O)NC(=O)[C@H](Cc2cn(C)c3ccccc23)NC(=O)[C@H](C(C)C)NC1=O [Cp40 (11Orn 6Asn)] (H-[dY]ICV[Trp(1-Me)]QNW[Sar]AH[Orn]C[NMeI]-NH2; disulfide 3-13),2.0 ± 0.4 10^6/Ms,1.5 ± 0.4,0.0028 ± 0.0006,,,
CC[C@H](C)[C@H](NC(=O)[C@H](N)Cc1ccc(O)cc1)C(=O)N[C@H]1CSSC[C@@H](C(=O)N(C)[C@H](C(N)=O)[C@@H](C)CC)NC(=O)[C@H](CCCN)NC(=O)[C@H](Cc2c[nH]cn2)NC(=O)[C@H](C)NC(=O)CN(C)C(=O)[C@H](Cc2c[nH]c3ccccc23)NC(=O)[C@H](CC(=O)O)NC(=O)[C@H](CCC(N)=O)NC(=O)[C@H](Cc2cn(C)c3ccccc23)NC(=O)[C@H](C(C)C)NC1=O [Cp40 (11Orn)] (H-[dY]ICV[Trp(1-Me)]QDW[Sar]AH[Orn]C[NMeI]-NH2; disulfide 3-13),2.5 ± 0.1 10^6/Ms,0.8 ± 0.1,0.002 ± 0.0001,,,
CC[C@H](C)[C@H](NC(=O)[C@@H](N)Cc1ccccc1)C(=O)N[C@H]1CSSC[C@@H](C(=O)N(C)[C@H](C(N)=O)[C@@H](C)CC)NC(=O)[C@H](CCCNC(=N)N)NC(=O)[C@H](Cc2c[nH]cn2)NC(=O)[C@H](C)NC(=O)CN(C)C(=O)[C@H](Cc2c[nH]c3ccccc23)NC(=O)[C@H](CC(=O)O)NC(=O)[C@H](CCC(N)=O)NC(=O)[C@H](Cc2cn(C)c3ccccc23)NC(=O)[C@H](C(C)C)NC1=O [compound 5] (H-FICV[Trp(1-Me)]QDW[Sar]AHRC[NMeI]-NH2; disulfide 3-13),,,,2.1 ± 0.4 10^6/Ms,1.6 ± 0.2,0.0033 ± 0.0003
CC[C@H](C)[C@H](NC(=O)[C@@H](N)CCCNC(=N)N)C(=O)N[C@H]1CSSC[C@@H](C(=O)N(C)[C@H](C(N)=O)[C@@H](C)CC)NC(=O)[C@H](CCCNC(=N)N)NC(=O)[C@H](Cc2c[nH]cn2)NC(=O)[C@H](C)NC(=O)CN(C)C(=O)[C@H](Cc2c[nH]c3ccccc23)NC(=O)[C@H](CC(=O)O)NC(=O)[C@H](CCC(N)=O)NC(=O)[C@H](Cc2cn(C)c3ccccc23)NC(=O)[C@H](C(C)C)NC1=O [compound 6] (H-RICV[Trp(1-Me)]QDW[Sar]AHRC[NMeI]-NH2; disulfide 3-13),,,,1.7 ± 0.2 10^6/Ms,1.7 ± 0.2,0.0029 ± 0.0002
CC[C@H](C)[C@H](NC(=O)[C@@H](N)Cc1c[nH]c2ccccc12)C(=O)N[C@H]1CSSC[C@@H](C(=O)N(C)[C@H](C(N)=O)[C@@H](C)CC)NC(=O)[C@H](CCCNC(=N)N)NC(=O)[C@H](Cc2c[nH]cn2)NC(=O)[C@H](C)NC(=O)CN(C)C(=O)[C@H](Cc2c[nH]c3ccccc23)NC(=O)[C@H](CC(=O)O)NC(=O)[C@H](CCC(N)=O)NC(=O)[C@H](Cc2cn(C)c3ccccc23)NC(=O)[C@H](C(C)C)NC1=O [compound 7] (H-WICV[Trp(1-Me)]QDW[Sar]AHRC[NMeI]-NH2; disulfide 3-13),,,,1.6 ± 0.1 10^6/Ms,2.2 ± 0.2,
CC[C@H](C)[C@H](NC(=O)[C@@H](N)[C@@H](C)O)C(=O)N[C@H]1CSSC[C@@H](C(=O)N(C)[C@H](C(N)=O)[C@@H](C)CC)NC(=O)[C@H](CCCNC(=N)N)NC(=O)[C@H](Cc2c[nH]cn2)NC(=O)[C@H](C)NC(=O)CN(C)C(=O)[C@H](Cc2c[nH]c3ccccc23)NC(=O)[C@H](CC(=O)O)NC(=O)[C@H](CCC(N)=O)NC(=O)[C@H](Cc2cn(C)c3ccccc23)NC(=O)[C@H](C(C)C)NC1=O [compound 8] (H-TICV[Trp(1-Me)]QDW[Sar]AHRC[NMeI]-NH2; disulfide 3-13),,,,1.2 ± 0.1 10^6/Ms,2.6 ± 0.3,0.0031 ± 0.0002
CC[C@H](C)[C@H](NC(=O)[C@@H](N)Cc1ccc(OC)cc1)C(=O)N[C@H]1CSSC[C@@H](C(=O)N(C)[C@H](C(N)=O)[C@@H](C)CC)NC(=O)[C@H](CCCNC(=N)N)NC(=O)[C@H](Cc2c[nH]cn2)NC(=O)[C@H](C)NC(=O)CN(C)C(=O)[C@H](Cc2c[nH]c3ccccc23)NC(=O)[C@H](CC(=O)O)NC(=O)[C@H](CCC(N)=O)NC(=O)[C@H](Cc2cn(C)c3ccccc23)NC(=O)[C@H](C(C)C)NC1=O [compound 9],,,,2.3 ± 0.4 10^6/Ms,,
CC[C@H](C)[C@H](NC(=O)[C@H](Cc1ccccc1)NC)C(=O)N[C@H]1CSSC[C@@H](C(=O)N(C)[C@H](C(N)=O)[C@@H](C)CC)NC(=O)[C@H](CCCNC(=N)N)NC(=O)[C@H](Cc2c[nH]cn2)NC(=O)[C@H](C)NC(=O)CN(C)C(=O)[C@H](Cc2c[nH]c3ccccc23)NC(=O)[C@H](CC(=O)O)NC(=O)[C@H](CCC(N)=O)NC(=O)[C@H](Cc2cn(C)c3ccccc23)NC(=O)[C@H](C(C)C)NC1=O [compound 10],,,,1.6 ± 0.2 10^6/Ms,1.8 ± 0.3,0.0029 ± 0.0003
CC[C@H](C)[C@H](NC(=O)[C@@H](NC)C(C)C)C(=O)N[C@H]1CSSC[C@@H](C(=O)N(C)[C@H](C(N)=O)[C@@H](C)CC)NC(=O)[C@H](CCCNC(=N)N)NC(=O)[C@H](Cc2c[nH]cn2)NC(=O)[C@H](C)NC(=O)CN(C)C(=O)[C@H](Cc2c[nH]c3ccccc23)NC(=O)[C@H](CC(=O)O)NC(=O)[C@H](CCC(N)=O)NC(=O)[C@H](Cc2cn(C)c3ccccc23)NC(=O)[C@H](C(C)C)NC1=O [compound 11],,,,1.8 ± 0.3 10^6/Ms,1.9 ± 0.1,0.0035 ± 0.0006
CC[C@H](C)[C@H](NC)C(=O)N[C@H](C(=O)N[C@H]1CSSC[C@@H](C(=O)N(C)[C@H](C(N)=O)[C@@H](C)CC)NC(=O)[C@H](CCCNC(=N)N)NC(=O)[C@H](Cc2c[nH]cn2)NC(=O)[C@H](C)NC(=O)CN(C)C(=O)[C@H](Cc2c[nH]c3ccccc23)NC(=O)[C@H](CC(=O)O)NC(=O)[C@H](CCC(N)=O)NC(=O)[C@H](Cc2cn(C)c3ccccc23)NC(=O)[C@H](C(C)C)NC1=O)[C@@H](C)CC [compound 12],,,,1.6 ± 0.2 10^6/Ms,2.4 ± 0.5,0.0037 ± 0.0003
CC[C@H](C)[C@H](NC(=O)[C@H](C)NC)C(=O)N[C@H]1CSSC[C@@H](C(=O)N(C)[C@H](C(N)=O)[C@@H](C)CC)NC(=O)[C@H](CCCNC(=N)N)NC(=O)[C@H](Cc2c[nH]cn2)NC(=O)[C@H](C)NC(=O)CN(C)C(=O)[C@H](Cc2c[nH]c3ccccc23)NC(=O)[C@H](CC(=O)O)NC(=O)[C@H](CCC(N)=O)NC(=O)[C@H](Cc2cn(C)c3ccccc23)NC(=O)[C@H](C(C)C)NC1=O [compound 13],,,,1.4 ± 0.2 10^6/Ms,2.5 ± 0.6,0.0034 ± 0.0003
CC[C@H](C)[C@H](NC(=O)[C@H](N)Cc1ccccc1)C(=O)N[C@H]1CSSC[C@@H](C(=O)N(C)[C@H](C(N)=O)[C@@H](C)CC)NC(=O)[C@H](CCCNC(=N)N)NC(=O)[C@H](Cc2c[nH]cn2)NC(=O)[C@H](C)NC(=O)CN(C)C(=O)[C@H](Cc2c[nH]c3ccccc23)NC(=O)[C@H](CC(=O)O)NC(=O)[C@H](CCC(N)=O)NC(=O)[C@H](Cc2cn(C)c3ccccc23)NC(=O)[C@H](C(C)C)NC1=O [compound 15],,,,2.3 ± 0.3 10^6/Ms,1.1 ± 0.1,0.0026
CC[C@H](C)[C@H](NC(=O)[C@H](N)Cc1c[nH]c2ccccc12)C(=O)N[C@H]1CSSC[C@@H](C(=O)N(C)[C@H](C(N)=O)[C@@H](C)CC)NC(=O)[C@H](CCCNC(=N)N)NC(=O)[C@H](Cc2c[nH]cn2)NC(=O)[C@H](C)NC(=O)CN(C)C(=O)[C@H](Cc2c[nH]c3ccccc23)NC(=O)[C@H](CC(=O)O)NC(=O)[C@H](CCC(N)=O)NC(=O)[C@H](Cc2cn(C)c3ccccc23)NC(=O)[C@H](C(C)C)NC1=O [compound 16],,,,2.0 ± 0.2 10^6/Ms,,
CC[C@H](C)[C@H](NC(=O)[C@H](N)CC1CCCCC1)C(=O)N[C@H]1CSSC[C@@H](C(=O)N(C)[C@H](C(N)=O)[C@@H](C)CC)NC(=O)[C@H](CCCNC(=N)N)NC(=O)[C@H](Cc2c[nH]cn2)NC(=O)[C@H](C)NC(=O)CN(C)C(=O)[C@H](Cc2c[nH]c3ccccc23)NC(=O)[C@H](CC(=O)O)NC(=O)[C@H](CCC(N)=O)NC(=O)[C@H](Cc2cn(C)c3ccccc23)NC(=O)[C@H](C(C)C)NC1=O [compound 17],,,,1.8 ± 0.5 10^6/Ms,1.5 ± 0.2,0.0027 ± 0.0004
CC[C@H](C)[C@H](NC(=O)[C@@H](C)N)C(=O)N[C@H]1CSSC[C@@H](C(=O)N(C)[C@H](C(N)=O)[C@@H](C)CC)NC(=O)[C@H](CCCNC(=N)N)NC(=O)[C@H](Cc2c[nH]cn2)NC(=O)[C@H](C)NC(=O)CN(C)C(=O)[C@H](Cc2c[nH]c3ccccc23)NC(=O)[C@H](CC(=O)O)NC(=O)[C@H](CCC(N)=O)NC(=O)[C@H](Cc2cn(C)c3ccccc23)NC(=O)[C@H](C(C)C)NC1=O [compound 18],,,,1.4 ± 0.3 10^6/Ms,2.5 ± 0.4,0.0034 ± 0.0004
